Laboratory results from PubChem BioAssay (NCI).
Where “and” joins values, the source holds several entries; their conditions need not be identical. Equal values may be shown once.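 Briefly, cells in 96-well plates were exposed to five compound concentrations for 48 h, and endpoints were estimated by linear interpolation. GI50 is the concentration that inhibits growth by half. TGI marks complete inhibition of growth.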

Assays:
Assay in all cases: NCI anticancer screen, dose series, 48 h
HOP-92 NSCLC = test system: HOP-92 NSCLC
IGROV1 ovarian = test system: IGROV1 ovarian
LOX IMVI melanoma = test system: LOX IMVI melanoma
MDA-MB-231 breast = test system: MDA-MB-231 breast
MOLT-4 leukemia = test system: MOLT-4 leukemia
PC-3 prostate = test system: PC-3 prostate
SK-MEL-2 melanoma = test system: SK-MEL-2 melanoma
SNB-75 CNS = test system: SNB-75 CNS
UACC-62 melanoma = test system: UACC-62 melanoma
HS 578T breast = test system: HS 578T breast

O=C(c1ccc(N=Cc2ccccc2O)cc1)c1ccc(N=Cc2ccccc2O)cc1
TGI (HOP-92 NSCLC): > 100 µM
TGI (IGROV1 ovarian): > 100 µM
TGI (LOX IMVI melanoma): > 100 µM
TGI (MDA-MB-231 breast): > 100 µM
TGI (MOLT-4 leukemia): > 100 µM
TGI (PC-3 prostate): > 100 µM
TGI (SK-MEL-2 melanoma): > 100 µM
TGI (SNB-75 CNS): > 100 µM
TGI (UACC-62 melanoma): > 100 µM

C(=Nc1ccc(-c2nc3ccccc3[nH]2)cc1)c1cccs1
TGI (HOP-92 NSCLC): 98.2 µM
TGI (HS 578T breast): > 100 µM
TGI (IGROV1 ovarian): > 100 µM
TGI (LOX IMVI melanoma): > 100 µM
TGI (MDA-MB-231 breast): > 100 µM
TGI (MOLT-4 leukemia): > 100 µM
TGI (PC-3 prostate): > 100 µM
TGI (SK-MEL-2 melanoma): > 100 µM
TGI (SNB-75 CNS): > 100 µM

NC(N)=NCCC[C@H](N)C(=O)NCC(=O)N[C@@H](CC(=O)O)c1ncc(NC(=O)C(F)(F)F)o1
TGI (HS 578T breast): > 25 µM
TGI (IGROV1 ovarian): > 25 µM
TGI (LOX IMVI melanoma): > 25 µM
TGI (MOLT-4 leukemia): > 25 µM
TGI (PC-3 prostate): > 25 µM
TGI (SK-MEL-2 melanoma): > 25 µM
TGI (SNB-75 CNS): > 25 µM
TGI (UACC-62 melanoma): > 25 µM

CCOC(=O)c1cc(C(O)P2(=O)N(CC(C)(C)C)[C@@H]3CCCC[C@H]3N2CC(C)(C)C)cn1C(=O)OC(C)(C)C (some centres undefined)
TGI (HS 578T breast): 36.1 µM
TGI (IGROV1 ovarian): 18.1 µM
TGI (LOX IMVI melanoma): 31.4 µM
TGI (MDA-MB-231 breast): 31.4 µM
TGI (MOLT-4 leukemia): 34 µM
TGI (PC-3 prostate): 48.5 µM
TGI (SK-MEL-2 melanoma): 32.8 µM
TGI (UACC-62 melanoma): 28.6 µM

CNc1ccc(C(=O)CC(O)CCC(C)C2OC(=O)CC(O)CC(=O)CC(O)CC(O)CC(O)CC(O)CC3(O)CC(O)C(C(=O)OC)C(CC(O[C@@H]4O[C@H](C)[C@@H](O)[C@H](N)[C@@H]4O)/C=C/C=C/C=C/C=C/C=C/C=C/C=C/C2C)O3)cc1 (some centres undefined)
GI50 (HOP-92 NSCLC): 3.27 µM
TGI (HOP-92 NSCLC): > 100 µM
GI50 (IGROV1 ovarian): 2.96 µM
TGI (IGROV1 ovarian): 7.94 µM
GI50 (LOX IMVI melanoma): 3.3 µM
TGI (LOX IMVI melanoma): > 100 µM
GI50 (MDA-MB-231 breast): 2.88 µM
TGI (MDA-MB-231 breast): > 100 µM
GI50 (MOLT-4 leukemia): 2.62 µM
TGI (MOLT-4 leukemia): 6.31 µM
GI50 (SK-MEL-2 melanoma): 3.59 µM
TGI (SK-MEL-2 melanoma): 8.86 µM
GI50 (SNB-75 CNS): 2.83 µM
TGI (SNB-75 CNS): 30.8 µM
GI50 (UACC-62 melanoma): 2.49 µM
TGI (UACC-62 melanoma): > 100 µM

O=C1C=CC[C@H]2O[C@@H](COC(=O)Cc3ccccc3)C[C@H]2O1
TGI (HOP-92 NSCLC): > 100 µM
TGI (HS 578T breast): 59.4 µM
TGI (IGROV1 ovarian): 54.6 µM
TGI (MDA-MB-231 breast): > 100 µM
TGI (MOLT-4 leukemia): > 100 µM
TGI (PC-3 prostate): > 100 µM
TGI (SK-MEL-2 melanoma): > 100 µM
TGI (SNB-75 CNS): 77.2 µM
TGI (UACC-62 melanoma): > 100 µM

COc1ccc(C(=C(Cl)c2ccccc2)c2ccc(OC)cc2)cc1
TGI (HOP-92 NSCLC): > 100 µM
TGI (HS 578T breast): > 100 µM
TGI (IGROV1 ovarian): > 100 µM
TGI (LOX IMVI melanoma): > 100 µM
TGI (MDA-MB-231 breast): > 100 µM
TGI (MOLT-4 leukemia): > 100 µM
TGI (PC-3 prostate): > 100 µM
TGI (SK-MEL-2 melanoma): > 100 µM
TGI (UACC-62 melanoma): > 100 µM

CC(C)=CCC/C(C)=C/C=C/C(C)=C/C=C/C(C)=C/C=C/C=C(C)/C=C/C=C(C)/C=C/[C@H]1C(C(C)(C)O)CC[C@]1(C)O (some centres undefined)
TGI (HOP-92 NSCLC): 28.3 µM
TGI (HS 578T breast): 59.1 µM
TGI (IGROV1 ovarian): 49.5 µM
TGI (LOX IMVI melanoma): 68.3 µM
TGI (MDA-MB-231 breast): 66.9 µM
TGI (MOLT-4 leukemia): 54.9 µM
TGI (PC-3 prostate): > 100 µM
TGI (SK-MEL-2 melanoma): > 100 µM

Cc1ccc([N+](=O)[O-])cc1S(=O)(=O)Nc1ccc(C2=NNC(c3ccccc3)C2)cc1 (centres undefined)
TGI (HOP-92 NSCLC): > 100 µM
TGI (HS 578T breast): > 100 µM
TGI (IGROV1 ovarian): > 100 µM
TGI (MDA-MB-231 breast): 77.5 µM
TGI (MOLT-4 leukemia): 39.8 µM
TGI (PC-3 prostate): > 100 µM
TGI (SK-MEL-2 melanoma): 45.4 µM
TGI (SNB-75 CNS): > 100 µM
TGI (UACC-62 melanoma): 24.3 µM

O=C1CCC(c2ccc(Cl)cc2)=NN1c1nsc2ccccc12
TGI (HOP-92 NSCLC): 71.2 µM
TGI (IGROV1 ovarian): > 100 µM
TGI (MOLT-4 leukemia): 53.2 µM
TGI (SK-MEL-2 melanoma): 38.7 µM
TGI (SNB-75 CNS): 56 µM
TGI (UACC-62 melanoma): > 100 µM

Cc1cn(C2CC(N(O)Cc3ccccc3)C(CO[Si](C)(C)C(C)(C)C)O2)c(=O)[nH]c1=O (centres undefined)
TGI (HOP-92 NSCLC): 36.8 µM and 29.6 µM
TGI (HS 578T breast): 41.6 µM and 34.5 µM
TGI (IGROV1 ovarian): 44.8 µM and 29.4 µM
TGI (MDA-MB-231 breast): 32.6 µM and 31.3 µM
TGI (MOLT-4 leukemia): > 100 µM
TGI (PC-3 prostate): 61.7 µM and 28 µM
TGI (SK-MEL-2 melanoma): 38.3 µM
GI50 (SNB-75 CNS): 39 µM and 16.2 µM
TGI (SNB-75 CNS): > 100 µM and 29.8 µM
TGI (UACC-62 melanoma): 26 µM and 30 µM

CC1NC(=O)CC(c2ccccc2)N(N=O)C1c1ccccc1 (centres undefined)
TGI (HOP-92 NSCLC): > 100 µM
TGI (IGROV1 ovarian): > 100 µM
TGI (LOX IMVI melanoma): > 100 µM
TGI (MOLT-4 leukemia): > 100 µM
TGI (SK-MEL-2 melanoma): > 85.9 µM
TGI (SNB-75 CNS): > 65.2 µM
TGI (UACC-62 melanoma): > 100 µM

O=C1CC(=Nc2ccc(Cl)cc2)C(c2ccccc2)N1c1ccccc1 (centres undefined)
TGI (HOP-92 NSCLC): 54.6 µM
TGI (HS 578T breast): 26.6 µM
TGI (IGROV1 ovarian): > 100 µM
TGI (LOX IMVI melanoma): 61.5 µM
TGI (MDA-MB-231 breast): 85.2 µM
TGI (MOLT-4 leukemia): > 100 µM
TGI (PC-3 prostate): > 100 µM
TGI (SK-MEL-2 melanoma): 7.92 µM
TGI (UACC-62 melanoma): 6.6 µM

COC(CNC(=O)C(C)NC(=O)CCc1ccccc1)OC (centres undefined)
TGI (HOP-92 NSCLC): > 100 µM
TGI (HS 578T breast): > 100 µM
TGI (IGROV1 ovarian): > 100 µM
TGI (MDA-MB-231 breast): > 100 µM
TGI (MOLT-4 leukemia): > 100 µM
TGI (PC-3 prostate): > 100 µM
TGI (SK-MEL-2 melanoma): > 100 µM
TGI (SNB-75 CNS): > 100 µM
TGI (UACC-62 melanoma): > 100 µM

O=Cc1ccc(OCc2cccc(COc3ccc(/C=N\Nc4ccc([N+](=O)[O-])cc4[N+](=O)[O-])cc3)n2)cc1
TGI (HS 578T breast): > 100 µM
TGI (IGROV1 ovarian): > 100 µM
TGI (LOX IMVI melanoma): > 100 µM
TGI (MDA-MB-231 breast): > 100 µM
TGI (MOLT-4 leukemia): 80.2 µM
TGI (PC-3 prostate): > 100 µM
TGI (SK-MEL-2 melanoma): > 100 µM
TGI (UACC-62 melanoma): > 100 µM

CC12C(=O)CC(CC1=O)C2(C)C
TGI (HOP-92 NSCLC): > 100 µM
TGI (HS 578T breast): > 100 µM
TGI (IGROV1 ovarian): > 100 µM
TGI (LOX IMVI melanoma): > 100 µM
TGI (MOLT-4 leukemia): > 100 µM
TGI (PC-3 prostate): > 100 µM
TGI (SK-MEL-2 melanoma): > 100 µM
TGI (SNB-75 CNS): > 100 µM
TGI (UACC-62 melanoma): > 100 µM

CCCCN1C(=O)N(c2ccc(OCC)cc2)C2N(CCCC)C1C(C)(C)C2(C)C (centres undefined)
TGI (HOP-92 NSCLC): 85.1 µM
TGI (HS 578T breast): 75.2 µM
TGI (IGROV1 ovarian): > 100 µM
TGI (LOX IMVI melanoma): > 100 µM
TGI (MDA-MB-231 breast): > 100 µM
TGI (PC-3 prostate): > 100 µM
TGI (SK-MEL-2 melanoma): > 100 µM
TGI (SNB-75 CNS): > 100 µM
TGI (UACC-62 melanoma): 50 µM

O=C(O)c1ccc([N+](=O)[O-])c2cc3cnccc3nc12
TGI (HOP-92 NSCLC): 45.8 µM
TGI (HS 578T breast): 65.6 µM
TGI (IGROV1 ovarian): > 100 µM
TGI (MDA-MB-231 breast): 36.2 µM
TGI (MOLT-4 leukemia): 29.7 µM
TGI (PC-3 prostate): 34.6 µM
TGI (SK-MEL-2 melanoma): 38.9 µM
TGI (SNB-75 CNS): 34.2 µM
TGI (UACC-62 melanoma): 24.8 µM

COc1cc(C(=O)N(Cc2cccnc2)C(=S)N(Cc2cccnc2)C(=O)c2cc(OC)c(OC)c(OC)c2)cc(OC)c1OC
TGI (HOP-92 NSCLC): 52.2 µM
TGI (HS 578T breast): > 100 µM
TGI (LOX IMVI melanoma): > 100 µM
TGI (MOLT-4 leukemia): > 100 µM
TGI (SNB-75 CNS): 56.7 µM
TGI (UACC-62 melanoma): 73.9 µM

COc1cc(/C=C2/C[C@H]3[C@@H]4CC=C5C[C@@H](O)CC[C@]5(C)[C@H]4CC[C@]3(C)NC2=O)cc(OC)c1OC
TGI (HOP-92 NSCLC): 25 µM
TGI (IGROV1 ovarian): 38.1 µM
TGI (LOX IMVI melanoma): > 100 µM
TGI (MDA-MB-231 breast): > 55.7 µM
TGI (MOLT-4 leukemia): > 100 µM
TGI (PC-3 prostate): 79.4 µM
TGI (SK-MEL-2 melanoma): > 62.9 µM
TGI (UACC-62 melanoma): 75.4 µM

COc1cccc(-c2ccc3c4c2O[C@H]2C(=O)CC[C@@]5(O)[C@@H](C3)N(CC3CC3)CC[C@]425)c1
TGI (HOP-92 NSCLC): 38.4 µM
TGI (HS 578T breast): 29.1 µM
TGI (IGROV1 ovarian): 44.2 µM
TGI (LOX IMVI melanoma): 30.9 µM
TGI (MDA-MB-231 breast): 30.3 µM
TGI (MOLT-4 leukemia): 24.7 µM
TGI (PC-3 prostate): 29.2 µM
TGI (SK-MEL-2 melanoma): 34.1 µM
TGI (UACC-62 melanoma): 32.7 µM
